Laboratory results as given in patent US10526294B2, “Pyrrolobenzodiazepines and conjugates thereof” (priority 2016, dated 2020).

Columns and labels:
BT474 cells = experiment: Cell viability assay (CellTiter-Glo), BT474; assay type: cell-based; conditions: Homo sapiens, BT-474, HER2 expressing cells, 72 h
Procedure: (§1) Cell Viability Assay for Antibody-Polymer-Drug Conjugates.
(§2) PBD compounds and conjugates thereof were evaluated for their antiproliferation properties in tumor cell lines in vitro using CellTiter-Glo® (Promega Corp). Cells were plated in black walled 96-well plate and allowed to adhere overnight at 37° C. in a humidified atmosphere of 5% CO2. BT474, SKBR3, NCI-N87 cells (HER2 expressing cells), JIMT1 cells (HER2 medium expression level cells) and MCF7 cells (HER2 low expressing levels cells) and were plated at a density of 5,000 cells per well. The next day the medium was replaced with 50 μL fresh medium and 50 μL of 2× stocks of PBD compounds or antibody-PBD conjugate were added to appropriate wells, mixed and incubated for 72 h. CellTiter-Glo® reagent was added to the wells at room temperature and the luminescent signal was measured after 10 min using a SpectraMax M5 plate reader (Molecular Devices). Dose response curves were generated using SoftMax Pro software. IC50 values were determined from four-parameter curve fitting.

SKBR3 cells = experiment: Cell viability assay (CellTiter-Glo), SKBR3; assay type: cell-based; conditions: Homo sapiens, SK-BR-3, HER2 expressing cells, 72 h
Procedure: as §1, §2

NCI-N87 cells = experiment: Cell viability assay (CellTiter-Glo), NCI-N87; assay type: cell-based; conditions: Homo sapiens, HER2 expressing cells, 72 h
Procedure: as §1, §2

JIMT1 cells = experiment: Cell viability assay (CellTiter-Glo), JIMT1; assay type: cell-based; conditions: Homo sapiens, JIMT-1, HER2 medium expression level cells, 72 h
Procedure: as §1, §2

MCF7 cells = experiment: Cell viability assay (CellTiter-Glo), MCF7; assay type: cell-based; conditions: Homo sapiens, HER2 low expressing levels cells, 72 h
Procedure: as §1, §2

[1] = Phase I clinical evaluation; cited from earlier work

With `C=C1CC2C=Nc3cc(OCCCC(=O)Nc4cn(C)c(C(=O)Nc5ccc(-c6nc7ccc(C(=O)OC)cc7[nH]6)cc5)n4)c(OC)cc3C(=O)N2C1` (stereo not shown) [Compound 33, (Z)-methyl 2-(4-(4-(4-(7-methoxy-2-methylene-5-oxo-2,3,5,11a-tetrahydro-1H-benzo[e]pyrrolo[1,2-a][1,4]diazepin-8-yloxy)butanamido)-1-methyl-1H-imidazole-2-carboxamido)phenyl)-1H-benzo[d]imidazole-6-carboxylate] as the compound, how does the IC50 (BT474 cells; PBD compounds (Table I)) read?
The IC50 was 3.1 nM.

What about the IC50 (SKBR3 cells; PBD compounds (Table I)) of the same compound?
Its IC50 is 0.3 nM.

And the IC50 (NCI-N87 cells; PBD compounds (Table I))?
Its IC50 is 0.9 nM.

And the IC50 (JIMT1 cells; PBD compounds (Table I))?
Its IC50 is 0.3 nM.

What about the IC50 (MCF7 cells; PBD compounds (Table I)) of the same compound?
Its IC50 is 3.4 nM.

Which IC50 (BT474 cells; PBD compounds (Table I)) does the source give for `COc1cc2c(cc1OCCCC(=O)Nc1cn(C)c(C(=O)Nc3ccc(-c4cc(C(=O)NCCCO)n(C)c4)cc3)n1)N=C[C@@H]1CCCN1C2=O` [Compound 40, (S,Z)—N-(4-(5-(3-hydroxypropylcarbamoyl)-1-methyl-1H-pyrrol-3-yl)phenyl)-4-(4-(7-methoxy-5-oxo-2,3,5,11a-tetrahydro-1H-benzo[e]pyrrolo[1,2-a][1,4]diazepin-8-yloxy)butanamido)-1-methyl-1H-imidazole-2-carboxamide] here?
The IC50 was 3 nM.

What about the IC50 (SKBR3 cells; PBD compounds (Table I)) of the same compound?
Its IC50 is 0.8 nM.

And the IC50 (NCI-N87 cells; PBD compounds (Table I))?
Its IC50 is 1.7 nM.

What about the IC50 (JIMT1 cells; PBD compounds (Table I)) of the same compound?
The IC50 was 1.3 nM.

And the IC50 (MCF7 cells; PBD compounds (Table I))?
Its IC50 is 5.5 nM.

For `C=C1C[C@H]2C=Nc3cc(OCCCC(=O)Nc4cc(-c5nc6ccc(N)cc6[nH]5)n(C)c4)c(OC)cc3C(=O)N2C1` [Compound 27, (S,Z)—N-(5-(6-amino-1H-benzo[d]imidazol-2-yl)-1-methyl-1H-pyrrol-3-yl)-4-(7-methoxy-2-methylene-5-oxo-2,3,5,11a-tetrahydro-1H-benzo[e]pyrrolo[1,2-a][1,4]diazepin-8-yloxy)butanamide], which IC50 (BT474 cells; PBD compounds (Table I)) is on record?
Its IC50 is 27.3 nM.

And the IC50 (SKBR3 cells; PBD compounds (Table I))?
The IC50 was 6.1 nM.

And the IC50 (NCI-N87 cells; PBD compounds (Table I))?
The IC50 was 13 nM.

And the IC50 (JIMT1 cells; PBD compounds (Table I))?
Its IC50 is 9 nM.

And the IC50 (MCF7 cells; PBD compounds (Table I))?
Its IC50 is 26 nM.

Which results are given for `C=C1C[C@H]2C=Nc3cc(OCCCC(=O)Nc4cn(C)c(C(=O)Nc5ccc(-c6nc7ccc(N)cc7[nH]6)cc5)n4)c(OC)cc3C(=O)N2C1` [Compound 9, (S,Z)—N-(4-(5-amino-1H-benzo[d]imidazol-2-yl)phenyl)-4-(4-(7-methoxy-2-methylene-5-oxo-2,3,5,11a-tetrahydro-1H-benzo[e]pyrrolo[1,2-a][1,4]diazepin-8-yloxy)butanamido)-1-methyl-1H-imidazole-2-carboxamide]?
IC50 (BT474 cells; PBD compounds (Table I)): 4 nM; IC50 (SKBR3 cells; PBD compounds (Table I)): 0.3 nM; IC50 (NCI-N87 cells; PBD compounds (Table I)): 0.9 nM; IC50 (JIMT1 cells; PBD compounds (Table I)): 0.7 nM; IC50 (MCF7 cells; PBD compounds (Table I)): 1.6 nM

Which IC50 (BT474 cells; PBD compounds (Table I)) does the source give for `C=C1C[C@H]2C=Nc3cc(OCCCC(=O)Nc4cc(C(=O)Nc5ccc(-c6cc(C(=O)NCCCO)n(C)c6)cc5)n(C)c4)c(OC)cc3C(=O)N2C1` [Compound 37, (S,Z)—N-(3-hydroxypropyl)-4-(4-(4-(4-(7-methoxy-2-methylene-5-oxo-2,3,5,11a-tetrahydro-1H-benzo[e]pyrrolo[1,2-a][1,4]diazepin-8-yloxy)butanamido)-1-methyl-1H-pyrrole-2-carboxamido)phenyl)-1-methyl-1H-pyrrole-2-carboxamide] here?
The IC50 was 2.9 nM.

What about the IC50 (SKBR3 cells; PBD compounds (Table I)) of the same compound?
The IC50 was 0.9 nM.

And the IC50 (NCI-N87 cells; PBD compounds (Table I))?
Its IC50 is 1 nM.

What about the IC50 (JIMT1 cells; PBD compounds (Table I)) of the same compound?
Its IC50 is 1 nM.

What about the IC50 (MCF7 cells; PBD compounds (Table I)) of the same compound?
Its IC50 is 4.9 nM.

Which IC50 (BT474 cells; conjugates (Table II)) does the source give for `C=C1CC2C=Nc3cc(OCCCC(=O)Nc4cn(C)c(C(=O)Nc5ccc(-c6cc(C(=O)n7ccc8cc(N)ccc87)n(C)c6)cc5)n4)c(OC)cc3C(=O)N2C1` (stereo not shown) [Compound 105, (Z)—N-(4-(5-(5-amino-1H-indole-1-carbonyl)-1-methyl-1H-pyrrol-3-yl)phenyl)-4-(4-(7-methoxy-2-methylene-5-oxo-2,3,5,11a-tetrahydro-1H-benzo[e]pyrrolo[1,2-a][1,4]diazepin-8-yloxy)butanamido)-1-methyl-1H-imidazole-2-carboxamide] here?
The IC50 was 0.09 nM.

And the IC50 (SKBR3 cells; conjugates (Table II))?
The IC50 was 0.007 nM.

And the IC50 (NCI-N87 cells; conjugates (Table II))?
The IC50 was 0.03 nM.

What about the IC50 (JIMT1 cells; conjugates (Table II)) of the same compound?
The IC50 was 0.04 nM.

What about the IC50 (MCF7 cells; conjugates (Table II)) of the same compound?
The IC50 was 0.03 nM.

With `C=C1C[C@H]2C=Nc3cc(OCCCC(=O)Nc4cn(C)c(C(=O)Nc5ccc(-c6cc(C(=O)OCCCN)n(C)c6)cc5)n4)c(OC)cc3C(=O)N2C1` [Compound 41, (S,Z)-3-aminopropyl 4-(4-(4-(4-(7-methoxy-2-methylene-5-oxo-2,3,5,11a-tetrahydro-1H-benzo[e]pyrrolo[1,2-a][1,4]diazepin-8-yloxy)butanamido)-1-methyl-1H-imidazole-2-carboxamido)phenyl)-1-methyl-1H-pyrrole-2-carboxylate] as the compound, how does the IC50 (BT474 cells; PBD compounds (Table I)) read?
The IC50 was 300 nM.

What about the IC50 (SKBR3 cells; PBD compounds (Table I)) of the same compound?
Its IC50 is 3 nM.

And the IC50 (NCI-N87 cells; PBD compounds (Table I))?
Its IC50 is 6.3 nM.

What about the IC50 (JIMT1 cells; PBD compounds (Table I)) of the same compound?
Its IC50 is 0.8 nM.

And the IC50 (MCF7 cells; PBD compounds (Table I))?
The IC50 was 140 nM.

For `C=C1C[C@H]2C=Nc3cc(OCCCOc4cc5c(cc4OC)C(=O)N4CC(=C)C[C@H]4C=N5)c(OC)cc3C(=O)N2C1` [SJG-136], which maximum tolerated dose [1] is on record?
Its maximum tolerated dose is 45 μg/m^2.

Which IC50 (BT474 cells; PBD compounds (Table I)) does the source give for `C=C1C[C@H]2C=Nc3cc(OCCCC(=O)Nc4cn(C)c(C(=O)Nc5cc(C(=O)Nc6ccc(-c7nc8cc(N)ccc8[nH]7)cc6)n(C)c5)n4)c(OC)cc3C(=O)N2C1` [Compound 24, (S,Z)—N-(5-(4-(5-amino-1H-benzo[d]imidazol-2-yl)phenylcarbamoyl)-1-methyl-1H-pyrrol-3-yl)-4-(4-(7-methoxy-2-methylene-5-oxo-2,3,5,11a-tetrahydro-1H-benzo[e]pyrrolo[1,2-a][1,4]diazepin-8-yloxy)butanamido)-1-methyl-1H-imidazole-2-carboxamide] here?
Its IC50 is 21 nM.

What about the IC50 (SKBR3 cells; PBD compounds (Table I)) of the same compound?
Its IC50 is 1 nM.

And the IC50 (NCI-N87 cells; PBD compounds (Table I))?
The IC50 was 3 nM.

And the IC50 (JIMT1 cells; PBD compounds (Table I))?
Its IC50 is 1.8 nM.

What about the IC50 (MCF7 cells; PBD compounds (Table I)) of the same compound?
The IC50 was 34 nM.

Which IC50 (BT474 cells; PBD compounds (Table I)) does the source give for `C=C1C[C@H]2C=Nc3cc(OCCCC(=O)Nc4cn(C)c(C(=O)Nc5ccc(-c6cc(C(=O)NC[C@H](C)O)n(C)c6)cc5)n4)c(OC)cc3C(=O)N2C1` [Compound 42, N-(4-(5-((S)-2-hydroxypropylcarbamoyl)-1-methyl-1H-pyrrol-3-yl)phenyl)-4-(4-((S,Z)-7-methoxy-2-methylene-5-oxo-2,3,5,11a-tetrahydro-1H-benzo[e]pyrrolo[1,2-a][1,4]diazepin-8-yloxy)butanamido)-1-methyl-1H-imidazole-2-carboxamide] here?
Its IC50 is 5.1 nM.

And the IC50 (SKBR3 cells; PBD compounds (Table I))?
Its IC50 is 1.4 nM.

And the IC50 (NCI-N87 cells; PBD compounds (Table I))?
Its IC50 is 1.4 nM.

And the IC50 (JIMT1 cells; PBD compounds (Table I))?
Its IC50 is 1.2 nM.

And the IC50 (MCF7 cells; PBD compounds (Table I))?
The IC50 was 4.5 nM.

With `C=C1C[C@H]2C=Nc3cc(OCCCC(=O)Nc4cn(C)c(C(=O)Nc5ccc(-c6cc7cc(N)ccc7[nH]6)cc5)n4)c(OC)cc3C(=O)N2C1` [Compound 18, (S)—N-(4-(5-amino-1H-indol-2-yl)phenyl)-4-(4-((7-methoxy-2-methylene-5-oxo-2,3,5,11a-tetrahydro-1H-benzo[e]pyrrolo[1,2-a][1,4]diazepin-8-yl)oxy)butanamido)-1-methyl-1H-imidazole-2-carboxamide] as the compound, how does the IC50 (BT474 cells; PBD compounds (Table I)) read?
Its IC50 is 0.5 nM.

And the IC50 (SKBR3 cells; PBD compounds (Table I))?
The IC50 was 0.08 nM.

What about the IC50 (NCI-N87 cells; PBD compounds (Table I)) of the same compound?
The IC50 was 0.2 nM.

And the IC50 (JIMT1 cells; PBD compounds (Table I))?
The IC50 was 0.2 nM.

And the IC50 (MCF7 cells; PBD compounds (Table I))?
Its IC50 is 0.7 nM.

What does the source list for `C=C1C[C@H]2C=Nc3cc(OCCCC(=O)Nc4cn(C)c(C(=O)Nc5ccc(-c6nc7cc(OC)ccc7[nH]6)cc5)n4)c(OC)cc3C(=O)N2C1` [Compound 106, (S,Z)—N-(4-(5-methoxy-1H-benzo[d]imidazol-2-yl)phenyl)-4-(4-(7-methoxy-2-methylene-5-oxo-2,3,5,11a-tetrahydro-1H-benzo[e]pyrrolo[1,2-a][1,4]diazepin-8-yloxy)butanamido)-1-methyl-1H-imidazole-2-carboxamide]?
IC50 (BT474 cells; conjugates (Table II)): 0.73 nM; IC50 (SKBR3 cells; conjugates (Table II)): 0.13 nM; IC50 (NCI-N87 cells; conjugates (Table II)): 0.21 nM; IC50 (JIMT1 cells; conjugates (Table II)): 0.17 nM; IC50 (MCF7 cells; conjugates (Table II)): 0.84 nM

Which IC50 (BT474 cells; PBD compounds (Table I)) does the source give for `COc1cc2c(cc1OCCCC(=O)Nc1cn(C)c(C(=O)Nc3ccc(-c4cc(C(=O)O)n(C)c4)cc3)n1)N=C[C@@H]1CCCN1C2=O` [Compound 44, (S,Z)-4-(4-(4-(4-(7-methoxy-5-oxo-2,3,5,11a-tetrahydro-1H-benzo[e]pyrrolo[1,2-a][1,4]diazepin-8-yloxy)butanamido)-1-methyl-1H-imidazole-2-carboxamido)phenyl)-1-methyl-1H-pyrrole-2-carboxylic acid] here?
Its IC50 is 1000 nM.

What about the IC50 (SKBR3 cells; PBD compounds (Table I)) of the same compound?
The IC50 was 53 nM.

What about the IC50 (NCI-N87 cells; PBD compounds (Table I)) of the same compound?
Its IC50 is 105 nM.

And the IC50 (JIMT1 cells; PBD compounds (Table I))?
The IC50 was 109 nM.

And the IC50 (MCF7 cells; PBD compounds (Table I))?
Its IC50 is 560 nM.
